Data from ChEMBL document CHEMBL5215007, “Polycyclic Polyprenylated Acylphloroglucinols Bearing a Lavandulyl-Derived Substituent from Garcinia xanthochymus Fruits” (J Nat Prod, 2022).
Activity calls are given as the source filed them. The calls are words filed in the database; no cut-off is given here.

Legend:
[1] = test system: Huh-7; test: Antiproliferative activity against human Huh-7 cells assessed as inhibition of cell proliferation incubated for 24 hrs by CCK-8 assay; assay type: functional, cell-based; conditions: Huh-7, 24 h
[2] = test system: Hep 3B2; test: Antiproliferative activity against human Hep3B cells assessed as inhibition of cell proliferation incubated for 24 hrs by CCK-8 assay; assay type: functional, cell-based
[3] = test system: HepG2; test: Antiproliferative activity against human HepG2 cells assessed as inhibition of cell proliferation incubated for 24 hrs by CCK-8 assay; assay type: functional, cell-based; conditions: HepG2, 24 h
[4] = test system: Huh-7; test: Antimigratory activity against human Huh-7 cells assessed as inhibition of cell migration at 6.25 to 12.5 uM incubated for 48 hrs by scratch wound healing assay; assay type: functional, cell-based; conditions: dose 6.25-12.5 µM
[5] = test system: Huh-7; test: Induction of apoptosis in human Huh-7 cells assessed as viable cells at 3.125 uM incubated for 24 hrs by Annexin V-FITC/PI staining based flow cytometric analysis (reference value: 92.31 %); assay type: functional; conditions: read-out: Activity
[6] = test system: Huh-7; test: Induction of apoptosis in human Huh-7 cells assessed as early apoptotic cells at 3.125 uM incubated for 24 hrs by Annexin V-FITC/PI staining based flow cytometric analysis (reference value: 2.83 %); assay type: functional
[7] = test system: Huh-7; test: Induction of apoptosis in human Huh-7 cells assessed as late apoptotic cells at 3.125 uM incubated for 24 hrs by Annexin V-FITC/PI staining based flow cytometric analysis (reference value: 3.19 %); assay type: functional
[8] = test system: Huh-7; test: Induction of apoptosis in human Huh-7 cells assessed as necrotic cells at 3.125 uM incubated for 24 hrs by Annexin V-FITC/PI staining based flow cytometric analysis (reference value: 1.67 %); assay type: functional
[9] = test system: Huh-7; test: Induction of apoptosis in human Huh-7 cells assessed as viable cells at 6.25 uM incubated for 24 hrs by Annexin V-FITC/PI staining based flow cytometric analysis (reference value: 92.31 %); assay type: functional; conditions: read-out: Activity
[10] = test system: Huh-7; test: Induction of apoptosis in human Huh-7 cells assessed as early apoptotic cells at 6.25 uM incubated for 24 hrs by Annexin V-FITC/PI staining based flow cytometric analysis (reference value: 2.83 %); assay type: functional
[11] = test system: Huh-7; test: Induction of apoptosis in human Huh-7 cells assessed as late apoptotic cells at 6.25 uM incubated for 24 hrs by Annexin V-FITC/PI staining based flow cytometric analysis (reference value: 3.19 %); assay type: functional
[12] = test system: Huh-7; test: Induction of apoptosis in human Huh-7 cells assessed as necrotic cells at 6.25 uM incubated for 24 hrs by Annexin V-FITC/PI staining based flow cytometric analysis (reference value: 1.67 %); assay type: functional
[13] = test system: Huh-7; test: Induction of apoptosis in human Huh-7 cells assessed as viable cells at 12.5 uM incubated for 24 hrs by Annexin V-FITC/PI staining based flow cytometric analysis (reference value: 92.31 %); assay type: functional; conditions: read-out: Activity
[14] = test system: Huh-7; test: Induction of apoptosis in human Huh-7 cells assessed as early apoptotic cells at 12.5 uM incubated for 24 hrs by Annexin V-FITC/PI staining based flow cytometric analysis (reference value: 2.83 %); assay type: functional
[15] = test system: Huh-7; test: Induction of apoptosis in human Huh-7 cells assessed as late apoptotic cells at 12.5 uM incubated for 24 hrs by Annexin V-FITC/PI staining based flow cytometric analysis (reference value: 3.19 %); assay type: functional
[16] = test system: Huh-7; test: Induction of apoptosis in human Huh-7 cells assessed as necrotic cells at 12.5 uM incubated for 24 hrs by Annexin V-FITC/PI staining based flow cytometric analysis (reference value: 1.67 %); assay type: functional
[17] = target: Signal transducer and activator of transcription 3 (Homo sapiens) (UniProt P40763); test: Inhibition of STAT3 phosphorylation in human Huh-7 cells at 6.25 to 12.5 uM by Western blot analysis; assay type: cell-based; conditions: dose 6.25-12.5 µM
Signal transducer and activator of transcription 3 (Homo sapiens), sequence (P40763 whole entry): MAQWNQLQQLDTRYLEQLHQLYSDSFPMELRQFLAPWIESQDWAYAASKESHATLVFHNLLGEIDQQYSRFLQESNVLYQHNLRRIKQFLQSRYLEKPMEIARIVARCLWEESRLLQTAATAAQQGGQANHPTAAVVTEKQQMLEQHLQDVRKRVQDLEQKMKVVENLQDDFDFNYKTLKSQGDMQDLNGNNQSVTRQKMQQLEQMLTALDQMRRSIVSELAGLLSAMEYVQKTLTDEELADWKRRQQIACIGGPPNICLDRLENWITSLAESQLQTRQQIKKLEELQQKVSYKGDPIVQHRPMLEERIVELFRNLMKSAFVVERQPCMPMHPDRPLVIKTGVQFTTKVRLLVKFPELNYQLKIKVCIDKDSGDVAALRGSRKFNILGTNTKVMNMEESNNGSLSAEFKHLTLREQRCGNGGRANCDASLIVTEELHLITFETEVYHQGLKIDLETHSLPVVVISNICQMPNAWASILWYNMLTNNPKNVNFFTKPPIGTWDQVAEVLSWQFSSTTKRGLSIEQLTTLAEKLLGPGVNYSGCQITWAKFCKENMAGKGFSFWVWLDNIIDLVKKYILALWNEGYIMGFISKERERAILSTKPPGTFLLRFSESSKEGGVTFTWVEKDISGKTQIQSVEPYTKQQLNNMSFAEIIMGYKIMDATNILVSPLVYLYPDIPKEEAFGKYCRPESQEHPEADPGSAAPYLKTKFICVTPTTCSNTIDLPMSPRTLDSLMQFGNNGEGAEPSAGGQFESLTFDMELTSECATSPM

Row | Structure (SMILES) | IC50 [1] [µM] | IC50 [2] [µM] | IC50 [3] [µM] | other results
1 | C=C(C)[C@H]1C[C@]23C[C@H](CC=C(C)C)C(C)(C)[C@](CC=C(C)C)(C(=O)C(C(=O)c4ccc(O)c(O)c4)=C2O[C@@H]1C=C(C)C)C3=O | 18.1 | 18.2 | 11 | –
2 | CC(C)=CC[C@@H]1C[C@]23C[C@@H](CC=C(C)C)C(C)(C)[C@](CC=C(C)C)(C(=O)C(C(=O)c4ccc(O)c(O)c4)=C2OC1(C)C)C3=O | 9.3 | 9.3 | 4.3 | Activity [4]: Active; viability at 3.125 µM [5]: 84.4%; Activity [6]: 10.88%; Activity [7]: 3.19%; Activity [8]: 1.53%; viability at 6.25 µM [9]: 86.5%; Activity [10]: 8.39%; Activity [11]: 3.38%; Activity [12]: 1.69%; viability at 12.5 µM [13]: 83.8%; Activity [14]: 10.38%; Activity [15]: 3.3%; Activity [16]: 2.55%; inhibition [17]: Active
3 | C=C(C)CC[C@@H]1C[C@]23C[C@H](CC=C(C)C)C(C)(C)[C@](CC=C(C)C)(C(=O)C(C(=O)c4cccc(O)c4)=C2OC1(C)C)C3=O | 28.2 | 44.8 | 12.4 | –
4 | C=C(C)CC[C@@H]1C[C@]23C[C@H](CCC(C)(C)O)C(C)(C)[C@](CC=C(C)C)(C(=O)C(C(=O)c4ccc(O)c(O)c4)=C2OC1(C)C)C3=O | 17.3 | 15.8 | 9.5 | –
5 | CNC(=O)c1cc(Oc2ccc(NC(=O)Nc3ccc(Cl)c(C(F)(F)F)c3)cc2)ccn1 [SORAFENIB] | 9.7 | 12.4 | 16.6 | –
6 | C=C(C)CC[C@@H]1C[C@]23C[C@@H](CC=C(C)C)C(C)(C)[C@](CC=C(C)C)(C(=O)C(C(=O)c4ccc(O)c(O)c4)=C2OC1(C)C)C3=O | 9.3 | 17.1 | 11.3 | Activity [4]: Active; viability at 3.125 µM [5]: 80.8%; Activity [6]: 11.74%; Activity [7]: 5.35%; Activity [8]: 2.09%; viability at 6.25 µM [9]: 80.3%; Activity [10]: 11.09%; Activity [11]: 5.65%; Activity [12]: 3.01%; viability at 12.5 µM [13]: 77.7%; Activity [14]: 11.75%; Activity [15]: 6.37%; Activity [16]: 4.17%; inhibition [17]: Active
7 | C=C(C)CC[C@@H](C[C@]12C[C@H](CC=C(C)C)C(C)(C)[C@](CC=C(C)C)(C(=O)C(C(=O)c3cccc(O)c3)=C1O)C2=O)C(=C)C | 27.2 | 20.8 | 23.2 | –
8 | C=C(C)CC[C@H]1C[C@]23C[C@@H](CC=C(C)C)C(C)(C)[C@](CC=C(C)C)(C(=O)C(C(=O)c4ccc(O)c(O)c4)=C2OC1(C)C)C3=O | 22.9 | 15.5 | 22.5 | –
9 | CC(C)=CC[C@@H]1C[C@]23C[C@H](CCC(C)(C)O)C(C)(C)[C@](CC=C(C)C)(C(=O)C(C(=O)c4ccc(O)c(O)c4)=C2OC1(C)C)C3=O | 20.6 | 23.9 | 11.7 | –
10 | C=C(C)[C@H]1C[C@]23C[C@H](CC=C(C)C)C(C)(C)[C@](CC=C(C)C)(C(=O)C(C(=O)c4cccc(O)c4)=C2O[C@@H]1C=C(C)C)C3=O | 25.1 | 17.9 | 22 | –
11 | CC(C)=CC[C@@H]1C[C@]23C[C@H](CCC(C)(C)O)C(C)(C)OC2=C(C(=O)c2ccc(O)c(O)c2)C(=O)[C@@](CC=C(C)C)(C3=O)C1(C)C | 12.6 | 9 | 3.9 | –
